Reference: patent US20170066741A1, “2-Amino-3,5,5-Trifluoro-3,4,5,6-Tetrahydropyridines as BACE1 Inhibitors for Treatment of Alzheimer's Disease” (H. Lundbeck A/S, priority 2014, published 2017)

Target: T1, BACE1 enzyme (Homo sapiens, UniProt P56817)
T1 construct: purchased Life Technologies P2985
Assay: BACE1 efficacy assay (FRET-based, commercial BACE1 kit)
Type: biochemical
Details: test compound 10 μM
Procedure: The efficacy assay was performed as a FRET-based assay using a commercially available BACE1 kit (Life Technologies, P2985). 2 μl test compound at 10 μM (final concentration) and 15 μl BACE1 enzyme from the kit (final concentration 3 nM) were preincubated for 15 minutes at room temperature before addition of […] of substrate from the kit (250 nM final concentration) and incubated for additional 90 minutes at room temperature. The assay plate was subsequently read in a Pherastar (Ex540/Em590). […] The efficacy of the test compounds was evaluated at 10 μM (final concentration) and defined as the percent inhibition of the enzyme activity using the equation % inhibition=100%−normalized enzyme activity in percent.

T1 sequence (P56817 46-501): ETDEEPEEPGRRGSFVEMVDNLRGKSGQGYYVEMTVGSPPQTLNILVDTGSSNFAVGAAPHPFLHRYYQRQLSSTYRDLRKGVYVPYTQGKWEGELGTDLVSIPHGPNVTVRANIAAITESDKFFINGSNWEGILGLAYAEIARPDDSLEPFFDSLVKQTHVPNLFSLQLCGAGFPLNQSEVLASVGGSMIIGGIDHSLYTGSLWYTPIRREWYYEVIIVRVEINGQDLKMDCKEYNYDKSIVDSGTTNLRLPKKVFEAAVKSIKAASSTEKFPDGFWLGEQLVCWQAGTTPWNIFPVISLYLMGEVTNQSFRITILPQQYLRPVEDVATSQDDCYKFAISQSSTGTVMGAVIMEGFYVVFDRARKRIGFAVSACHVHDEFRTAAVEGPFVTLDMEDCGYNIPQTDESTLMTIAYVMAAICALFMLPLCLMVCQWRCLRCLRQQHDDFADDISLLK

SMILES	inhibition at 10 µM
COc1ccc(C(=O)Nc2ccc(F)c([C@@]3(C)N=C(N)[C@@](C)(F)CC3(F)F)c2)nc1 [Compound 17, N-(3-((2R,5S)-6-amino-3,3,5-trifluoro-2,5-dimethyl-2,3,4,5-tetrahydropyridin-2-yl)-4-fluorophenyl)-5-methoxypicolinamide]	101%
C[C@@]1(F)CC(F)(F)[C@@](C)(c2cc(NC(=O)c3ccn(C(F)F)n3)ccc2F)N=C1N [Compound 23, N-(3-((2R,5R)-6-amino-3,3,5-trifluoro-2,5-dimethyl-2,3,4,5-tetrahydropyridin-2-yl)-4-fluorophenyl)-1-(difluoromethyl)-1H-pyrazole-3-carboxamide]	102%
Cc1cc(C#N)cnc1C(=O)Nc1ccc(F)c([C@@]2(C)N=C(N)[C@@](C)(F)CC2(F)F)c1 [Compound 18, N-(3-((2R,5S)-6-amino-3,3,5-trifluoro-2,5-dimethyl-2,3,4,5-tetrahydropyridin-2-yl)-4-fluorophenyl)-5-cyano-3-methylpicolinamide]	102%
